Measurements published in ChEMBL document CHEMBL3351973, “4(α-l-rhamnosyloxy)-benzyl isothiocyanate, a bioactive phytochemical that attenuates secondary damage in an experimental model of spinal cord injury” (Bioorg Med Chem, 2015).
Calls of active or inactive are those of the source.

Key:
Assay type in all cases: functional, organism-based
Parameters in all cases: dose 10 mg/kg
[1] = system: Mus musculus; assay: Antiinflammatory activity in CD-1 mouse spinal cord injury model assessed as IkappaB-alpha expression at 10 mg/kg, ip measured on day 7 by Western blotting analysis relative to control
[2] = system: Mus musculus; assay: Antiapoptotic activity in CD-1 mouse spinal cord injury model assessed as reduction in caspase expression at 10 mg/kg, ip measured on day 7 by Western blotting analysis relative to control
[3] = system: Mus musculus; assay: Protection against injury in CD-1 mouse spinal cord injury model assessed as distribution of reticular fibre at 10 mg/kg, ip measured on day 7 by hematoxylin/eosin staining-based assay relative to control
[4] = system: Mus musculus; assay: Antiapoptotic activity in CD-1 mouse spinal cord injury model assessed as reduction in Bax level at 10 mg/kg, ip measured on day 7 by immunohistological analysis relative to control
[5] = system: Mus musculus; assay: Antiinflammatory activity in CD-1 mouse spinal cord injury model assessed as reduction of NF-kappaB-p65 level at 10 mg/kg, ip measured on day 7 by immunohistological analysis relative to control
[6] = system: Mus musculus; assay: Antiapoptotic activity in CD-1 mouse spinal cord injury model assessed as increase in Bcl-2 level at 10 mg/kg, ip measured on day 7 by immunohistological analysis relative to control
[7] = system: Mus musculus; assay: Antiinflammatory activity in CD-1 mouse spinal cord injury model assessed as reduction in iNOS expression at 10 mg/kg, ip measured on day 7 by immunohistological analysis relative to control
[8] = system: Mus musculus; assay: Protection against injury in CD-1 mouse spinal cord injury model assessed as edema at 10 mg/kg, ip measured on day 7 by hematoxylin/eosin staining-based assay relative to control
[9] = system: Mus musculus; assay: Neuroprotective activity in CD-1 mouse spinal cord injury model assessed as alteration of white matter at 10 mg/kg, ip measured on day 7 by hematoxylin/eosin staining-based assay relative to control
[10] = system: Mus musculus; assay: Protection against injury in CD-1 mouse spinal cord injury model assessed as infiltration of leukocyte at 10 mg/kg, ip measured on day 7 by hematoxylin/eosin staining-based assay relative to control

Measured: Activity

C[C@@H]1O[C@@H](Oc2ccc(CN=C=S)cc2)[C@H](O)[C@H](O)[C@H]1O
active: all assays above
